The text below walks through data of a melting point compilation (Tetko et al.).

On to `Cc1cccnc1NC(=O)C(C(F)(F)F)C(F)(F)F`, for which the melting point (usually the temperature of the solid-liquid transition) was found to be 181 °C.

`CC(C)S(=O)(=O)n1c(N)nc2ccc(C(=NO)c3ccccc3)cc21` came in with a melting point of 198 °C.

As to `CC1=NN(CN2CCCCC2)C(=O)/C1=N\Nc1cccnc1`, the melting point was 177 °C.

`COc1cc(CCl)cc(OC)c1` showed a melting point of 46 to 48 °C.

Compound `FC(F)(F)C(Cl)(Cl)Cl` showed a melting point of 14.2 °C.

`O=C(C(=S)Nc1ccc(I)cc1)c1ccccc1` displayed a melting point of 139 °C.

For `CC(C)OC(=O)c1cc(C(=O)OC(C)C)cc([N+](=O)[O-])c1`, the melting point came to 65 °C.

Regarding `O=C(C=P(c1ccccc1)(c1ccccc1)c1ccccc1)OCc1ccccc1`, the melting point was 120 to 127 °C.

With `CCOC(=O)c1cc(C)n(-c2cc(C)n(C)n2)n1`, the melting point worked out at 72 °C.

`COC12C(COC(N)=O)C3=C(C(=O)C(C)=C(Nc4cnccc4N)C3=O)N1CC1NC12` (stereo unspecified) returned a melting point of 159 °C.

The compound `C1CSC2=C(S1)SC(=C1SC3=C(SCCS3)S1)S2` showed a melting point of 244 °C.

Compound `O=C(O)CCCSSCCCC(=O)O` showed a melting point of 105 to 110 °C.

With `CSc1sc(C(=O)O)c(-c2cccc(Cl)c2)c1C#N`, the melting point fell in the range of 209 to 211 °C.

As to `Cc1nc(-c2cccc(-n3cccc3)c2)sc1C(=O)NN`, the melting point was 185 to 186 °C.

Consider `S=C1NCCN1`, for which the melting point was found to be 203 °C.

In turn, `O=C(CN1CCNCC1)N1CCOCC1` had a melting point of 63 to 65 °C.

`CCCC=NO` displayed a melting point of -29.5 °C.

With `CCOC=C(C#N)C(=O)OCC`, the melting point is 49.5 °C.

As for `Nc1cccc2nsnc12`, the melting point worked out at 68 °C.

Compound `CC(=O)/C(=N\Nc1cccc([N+](=O)[O-])c1)C(=O)C(F)(F)F` had a melting point of 205 to 206 °C.

In the case of `CNC(=O)Oc1cc(C(C)(C)C)cc(C(C)(C)C)c1`, the melting point came to 103 °C.

Compound `O=C(CBr)c1coc2ccccc12` returned a melting point of 136 to 137 °C.

The compound `Cc1ccc(C#N)c(C#N)c1` yielded a melting point of 118 to 121 °C.

As for `O=C(CBr)c1nccs1`, the melting point lay in the range of 54 to 55 °C.

In the case of `O=C1OC(c2ccccc2)=NC1=Cc1ccc(-c2ccc([N+](=O)[O-])cc2)o1`, the melting point was found to be 208 °C.

Turning to `Cc1nc(-c2ccc(C(F)(F)F)cc2)sc1CO`, the melting point lay within 119 to 122 °C.

Consider `N#CCC(=O)c1ccc(N)cc1`, for which the melting point was found to be 159 °C.

Turning to `CCC1CCc2ccccc2C1` (stereo unspecified), the melting point was -42.8 °C.

`CCCOc1ccc([N+](=O)[O-])cc1NC(C)=O`: the melting point is 102 °C.

Compound `N#Cc1cc(C#N)c(C#N)cc1C#N` returned a melting point of 267 to 270 °C.

Compound `O=C1CCCCCCCC1` displayed a melting point of 34 °C.

Compound `Cc1noc(C)c1[N+](=O)[O-]` displayed a melting point of 57 to 60 °C.

As to `NC(=O)C(F)(F)C(F)F`, the melting point lay within 57 to 59 °C.

`CC(C)[C@@H](C)CC[C@@H](C)[C@H]1CC[C@H]2C3=CC[C@H]4C[C@@H](O)CC[C@]4(C)[C@H]3CC[C@]12C` displayed a melting point of 146 °C.

In turn, `CSc1nc2ccccc2c(=O)[nH]1` gave a melting point of 223 to 225 °C.

As for `Cc1ccc([N+](=O)[O-])c(N)n1`, the melting point lay in the range of 146 to 150 °C.

In the case of `NC1=NC(=O)C(c2ccccc2)O1` (stereo unspecified), the melting point was determined as 256 °C.

On to `CCOC(=O)CC(=O)C(C)C`, for which the melting point was -9 °C.

Consider `Cc1nc2cc([N+](=O)[O-])ccc2s1`, for which the melting point was 133 °C.

The compound `[O-][N+](=Nc1ccc(N=Nc2ccccc2)cc1)c1ccc(N=Nc2ccc(N=Nc3ccccc3)cc2)cc1` showed a melting point of 253 °C.

`C1COCCOCCOCCOCCN1` returned a melting point of 35 to 37 °C.

In turn, `CS(=O)(=O)OS(C)(=O)=O` displayed a melting point of 69 to 70 °C.

The compound `NC(=O)c1nccnc1C(N)=O` gave a melting point of 268 °C.

As for `COc1cc2c(cc1OCc1ccccc1)C(C)N(C)CC2` (stereo unspecified), the melting point was found to be 82 °C.

In the case of `Clc1cc2ccccc2c2ccccc12`, the melting point lay within 46 to 50 °C.

For the compound `OCC1=CCN2CCC(O)C12` (stereo unspecified), the melting point stood at 120 °C.

For `CCCS(=O)(=O)CCC`, the melting point is 29.5 °C.

Regarding `C=CC1CN2CCC1CC2C(=O)c1ccnc2ccc(OC)cc12` (stereo unspecified), the melting point came out at 108 °C.

In turn, `CCOC(=O)C(C(=O)OCC)C(Br)c1cc(C(Br)C(C(=O)OCC)C(=O)OCC)c([N+](=O)[O-])cc1[N+](=O)[O-]` (stereo unspecified) had a melting point of 130 °C.

In turn, `Cc1cc(S(N)(=O)=O)ccc1Br` displayed a melting point of 151 °C.

In the case of `CC(=O)Nc1ccc(-c2ccc(/N=N/c3ccccc3)cc2)cc1`, the melting point was 236 to 237 °C.

The compound `S=c1sccs1` displayed a melting point of 49 °C.

`C=C1C(=O)C23C(OC(C)=O)CC4C(C)(C)CCC(OC(C)=O)C4(C)C2C(OC(C)=O)CC12OC(C)(C)OC23` (stereo unspecified) returned a melting point of 259 °C.

`CCOC(=O)C(O)(c1ccc(N)c(OC)c1)C(F)(F)F` (stereo unspecified) displayed a melting point of 97 to 99 °C.

As to `Cn1c(=O)c(C2=NNC(=O)C2=NNc2ncccn2)c(O)c2ccccc21`, the melting point was determined as 302 °C.

As for `CCOC(=O)Cn1c(=O)sc2cccc(Cl)c21`, the melting point was 79.2 °C.

Compound `Cc1ccc(C(c2ccc(C)o2)c2cc(Br)ccc2O)o1` showed a melting point of 97 °C.

`Cc1csc(C)c1C`: the melting point was -26.2 °C.

Compound `FC(F)(F)c1cc2ccccc2cn1` showed a melting point of 31 °C.

In the case of `COc1ccc(C#N)c(OC)c1`, the melting point turned out to be 94 °C.

As for `Cc1ccc(O)cn1`, the melting point was 169 °C.

The compound `NC(=O)c1sc(Nc2ccccc2)nc1N` showed a melting point of 205 °C.

`ClC(Cl)c1ccc(C(Cl)Cl)cc1` registered a melting point of 92 to 93 °C.

Consider `O=C1OC(=O)c2c(Cl)cccc21`, for which the melting point lay within 123 to 126 °C.

With `O=C(Nc1nccs1)C(F)(F)C(F)(F)C(F)(F)C(F)(F)C(F)(F)C(F)(F)C(F)(F)C(F)(F)F`, the melting point turned out to be 146 °C.

Take `O=[N+]([O-])c1ccc(C(Cl)C(Cl)c2ccc(C(Cl)C(Cl)c3ccc([N+](=O)[O-])cc3[N+](=O)[O-])cc2)c([N+](=O)[O-])c1` (stereo unspecified): the melting point lay in the range of 92 to 99 °C.

The compound `Nc1c(F)cc(Br)cc1Br` returned a melting point of 63 °C.

With `Cc1cc(O)c(C)c(O)c1`, the melting point was in the range of 161 to 164 °C.

Take `ClC=CBr`: the melting point was -86.7 °C.

Turning to `COc1ccc(Cc2c(N)nn3c(C)cc(C)nc23)cc1`, the melting point lay within 159 to 160 °C.

With `CC(=O)C(C)(CCC(=O)O)CCC(=O)O`, the melting point was found to be 123 °C.

For the compound `Cc1cc(C(=O)O)n[nH]1`, the melting point lay within 241 to 242 °C.

The compound `CC1(C)C=C(C(N)=O)C(C)(C)N1O` showed a melting point of 198 to 200 °C.

As to `S=C(NC1CCCCC1)C(=S)NC1CCCCC1`, the melting point fell in the range of 150 to 152 °C.

`Cc1ccc(-c2ccccc2)cc1C` yielded a melting point of 29.5 °C.

In turn, `Cc1ccc(CC(=O)Nc2ccc(C)cc2)cc1` came in with a melting point of 163 °C.

In the case of `FC(F)(F)c1ccc(-n2cc[nH]c2=S)cc1`, the melting point fell in the range of 194 to 196 °C.

Consider `CC1CC(OC(=O)C(O)c2ccccc2)CC(C)(C)C1` (stereo unspecified), for which the melting point came out at 56 °C.

Consider `CC(=O)OC1CC2C(C)C(=O)C3(C4CC5C(C)(C)CCC(OC(C)=O)C5(C(OC(C)=O)O4)C13)C2OC(C)=O` (stereo unspecified), for which the melting point is 265 °C.

Compound `NC(=NO)c1ccccc1` had a melting point of 75 to 77 °C.

The compound `Cc1ccc(C(c2ccc(C)o2)c2ccccc2C#N)o1` gave a melting point of 87 °C.

`O=C1NCNC1(c1ccccc1)c1ccccc1` gave a melting point of 183 °C.

For the compound `O=C(CBr)c1ccc(N2CCOCC2)cc1`, the melting point lay in the range of 112 to 115 °C.

For the compound `Cc1noc(-c2cccc(Br)c2)n1`, the melting point is 95 to 96 °C.

As to `Cc1ccccc1NN=C1C(=O)NC(=O)NC1=O`, the melting point stood at 265 °C.

For the compound `CCCCC/C=C\Br`, the melting point is -98 °C.

In turn, `Cc1cc(O)c([N+](=O)[O-])c(=O)[nH]1` showed a melting point of 293 to 296 °C.

The compound `O=C(c1cccs1)c1nn2c(nc(=O)c3ccccc32)s1` came in with a melting point of 236 °C.

The compound `OC(CCN1CCCCC1)(c1ccccc1)c1ccccc1` gave a melting point of 120 °C.

Compound `O=C(Cl)c1cc2ccccc2s1` showed a melting point of 87 °C.

In turn, `N#Cc1cccc(C(=O)Cc2cccc(Cl)c2)c1` showed a melting point of 87.5 to 90.8 °C.

`C=C(C)C=O` showed a melting point of -81 °C.

In turn, `CCCCOC(=O)CCCC` came in with a melting point of -92.8 °C.

`O=[N+]([O-])c1ccccc1C(F)(F)F` displayed a melting point of 32.5 °C.

The compound `Cc1ccccc1/C=C(\C#N)c1nc2ccccc2s1` yielded a melting point of 148 °C.

With `Nc1ccc(S(=O)(=O)c2ccc(NCCO)cc2)cc1`, the melting point was 131 °C.

`CCCCCCC(=O)OC` showed a melting point of -56 °C.

`COc1ccc2c(c1)CCC1C2CCC2(C)C(=O)C(Cl)CC12` (stereo unspecified) yielded a melting point of 180 °C.

In the case of `Cc1n[nH]c(C)c1C(C)(C)C`, the melting point turned out to be 104 °C.

In the case of `O=C(NC(Cc1ccccc1)C(=O)O)OCc1ccccc1` (stereo unspecified), the melting point was determined as 88.5 °C.

On to `CC(=O)Nc1ccc(/N=N/c2ccc(N(Nc3ccc(NC(C)=O)cc3)C(C)=O)cc2)cc1`, for which the melting point turned out to be 218 °C.

`C#CCCCCCCCCCCCCCCC`: the melting point was determined as 22 °C.

The compound `CC(=O)OC(C)=O` yielded a melting point of -73 °C.

`CCCCC(=O)OCN1C(=O)NC(c2ccccc2)(c2ccccc2)C1=O` returned a melting point of 91 °C.

As for `CN(C)C(=O)Nc1ccc(SC(F)(F)Cl)c(Cl)c1`, the melting point came out at 114 °C.

Consider `CCSCC(=O)O`, for which the melting point is -8.5 °C.

Turning to `COc1cccc(C(=O)N(NC(=O)c2ccccc2)C(C)(C)C)c1`, the melting point was 188 °C.

For `CCCC(C1CCCCC1)C1CCCCC1`, the melting point was -10.5 °C.

In turn, `Cc1ccnc(O)c1[N+](=O)[O-]` displayed a melting point of 228 to 232 °C.

The compound `Oc1c(Cl)c(O)c(Cl)c(O)c1Cl` came in with a melting point of 136 °C.

For `COc1ccc2c(c1)CCc1c-2[nH]c2ccc(OC)cc12`, the melting point lay within 194 to 196 °C.
